According to patent publication US7928108B2, “Pyridinone derivative for the treatment of premature ejaculation” (Glaxo Group Limited, priority 2007, dated 2011):

Columns and labels:
Human 5-HT1A receptor [1] = biological target: T1, Human 5-HT1A receptor (Homo sapiens, UniProt P08908); test: Human 5-HT1A receptor affinity, [3H]WAY100635 radioligand binding; parameters: expressed in transfected cells; host or cells: CHO; settings: CHO cell membranes expressing 5-HT1A, [3H]WAY100635 0.5 nM, 37° C. 45 minutes; assay b); read-out: pKi against 5-HT1A (converted)
T1 sequence (P08908 1-422): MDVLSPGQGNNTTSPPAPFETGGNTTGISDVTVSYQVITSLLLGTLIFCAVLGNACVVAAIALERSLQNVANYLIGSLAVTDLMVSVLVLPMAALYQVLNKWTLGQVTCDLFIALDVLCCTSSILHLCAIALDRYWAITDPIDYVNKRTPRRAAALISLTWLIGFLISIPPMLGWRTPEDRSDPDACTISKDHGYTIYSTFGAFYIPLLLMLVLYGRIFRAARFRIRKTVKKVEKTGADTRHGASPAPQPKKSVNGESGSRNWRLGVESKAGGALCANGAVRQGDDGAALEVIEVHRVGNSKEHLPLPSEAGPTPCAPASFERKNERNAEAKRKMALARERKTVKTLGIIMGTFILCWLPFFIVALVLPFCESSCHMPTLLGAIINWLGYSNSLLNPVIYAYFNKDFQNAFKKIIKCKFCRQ
Method: (§1) b) Human 5-HT1A, 5-HT1B and 5-HT1D Receptor Affinity
(§2) The affinities of the compounds of the invention for the 5-HT1A, 5-HT1B and 5-HT1D receptors may be determined by the following assay.
(§3) Homogenise chinese hamster ovary (CHO) cells expressing 5-HT1A receptors (4×10^7 cells/ml) in Tris buffer and store in 1 ml aliquots. Homogenise CHO cells expressing 5-HT1B receptors (4×10^7 cells/ml) in Tris buffer and store in 1.5 ml aliquots. Homogenise CHO cells expressing 5-HT1D receptors (1×10^8/ml) in Tris buffer and stored in 1 ml aliquots. The binding assays are carried out in a total volume of 500 μl. For each compound to be tested make up seven solutions ranging in concentration from 0.3 mM to 0.3 nM (100× final concentrations). Dispense 5 μl of solution containing the test compound per well and add 100 μl of radioligand at 5× final desired assay concentration, i.e. [^3H]-5-HT 15 nM (final assay concentration: 3 nM) in Tris Mg HCl buffer (pH 7.7) for 5-HT1B/1D receptors and [^3H]WAY100635 2.5 nM (final assay concentration: 0.5 nM) in Tris Mg HCl buffer (pH 7.7) containing 150 μM GPP(NH)p (final assay concentration: 30 μM) for 5-HT1A receptors. Add 400 μl/well of a cell membrane suspension in Tris Mg HCl buffer (pH 7.7) to make a total volume of 505 μl. Incubate at 37° C. for 45 minutes. […] Measure radioactivity using Topcount scintillation counting. […]

Human 5-HT1A receptor [2] = biological target: T1, Human 5-HT1A receptor; test: Human 5-HT1A receptor functional potency, GTPγS binding protocol; type: biochemical; parameters: expressed in transfected cells; settings: GTPγS binding, membranes of HEK293 cells transfected with human 5-HT1A; assay a); read-out: fpKi against 5-HT1A (converted)
Method: a) Human 5-HT1A Receptor Functional Potency
The functional potency of the compounds of the invention for the 5-HT1A receptor may be determined by the following GTPγS binding protocol. Cells used in the study are CHO Cells and Human Embryo Kidney (HEK293). Transfect cells with DNA coding for human receptor as follows: HEK293—5-HT1A. Initially dissolve test compounds in 100% dimethyl sulfoxide to a concentration of 10 mM. Serially dilute the test compounds in 100% dimethyl sulphoxide using a Biomek FX in 384 well assay plates, so that the final top concentration of test compound is 3 μM in the assay. Add the test compound at 1.0% total assay volume (TAV) to a solid, white, 384 well assay plate (Griener). Add 50% TAV of precoupled (for 60 mins @ RT) membranes (6 ug/well), Wheatgerm Agglutinin Polystyrene Scintillation Proximity Assay beads (RPNQ0260 Amersham International) (0.25 mg/well) in 20 mM HEPES pH 7.4, 100 mM NaCl, 3 mM MgCl2 and 10 μM GDP and saponin 60 m/well FAC was also added. The third addition may be either a 20% TAV addition of either; buffer for agonist format, or EC80 final assay concentration (FAC) of agonist, prepared in assay buffer, 5HT, for antagonist format.
Start the assay by the addition of 29% TAV of GTPγS 0.38 nM FAC.
After all additions, incubate the assay plates at RT for 2-3 hours. […] Read the assay plates between 3-6 hours after the final addition.

Human 5-HT1B receptor = biological target: T2, Human 5-HT1B receptor (Homo sapiens, UniProt P28222); test: Human 5-HT1B receptor affinity, [3H]-5-HT radioligand binding; settings: CHO cell membranes expressing 5-HT1B, [3H]-5-HT 3 nM, 37° C. 45 minutes; assay b); read-out: pKi against 5-HT1B (converted)
T2 construct: expressed in transfected cells; host or cells: CHO
T2 sequence (P28222 whole entry): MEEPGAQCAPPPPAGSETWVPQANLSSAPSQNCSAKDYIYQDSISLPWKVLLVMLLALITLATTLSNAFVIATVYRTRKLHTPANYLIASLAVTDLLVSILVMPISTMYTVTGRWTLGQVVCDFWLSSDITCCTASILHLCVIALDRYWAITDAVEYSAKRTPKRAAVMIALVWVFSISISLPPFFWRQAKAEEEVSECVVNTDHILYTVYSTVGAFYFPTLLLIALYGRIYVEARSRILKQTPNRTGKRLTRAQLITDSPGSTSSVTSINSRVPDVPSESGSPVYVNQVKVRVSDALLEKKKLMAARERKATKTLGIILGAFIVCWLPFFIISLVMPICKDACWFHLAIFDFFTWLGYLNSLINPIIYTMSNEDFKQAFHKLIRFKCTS
Method: as §1, §2, §3

Ki (Human 5-HT1A receptor [1]): 0.501 nM | Ki (Human 5-HT1A receptor [2]): 0.501 nM | Ki (Human 5-HT1B receptor): 200 nM
Structure (SMILES): COc1cccn(CCCCN2CCN(c3cccc4nc(C)ccc34)CC2)c1=O [compound of formula (I), 3-(methyloxy)-1-{4-[4-(2-methyl-5-quinolinyl)-1-piperazinyl]butyl}-2(1H)-pyridinone]
